From article PMC9783648, “Comparative Analysis of Aristolochic Acids in Aristolochia Medicinal Herbs and Evaluation of Their Toxicities” (Toxins, 2022)
Where two headings read alike, the source gives them in different places.

How the values were obtained:
[1] = Cytotoxicity assay, MTT method; type: cell-based, Human; details: human, HepG2, MTT, 72 h incubation, n = 3
Protocol: (§1) The cytotoxicity of the compounds to HepG2 was determined using the MTT method. First, the cells were transferred from the culture dish to a centrifuge tube, and centrifuged for 5 min (at 1000 r/min). After discarding the supernatant, the tumor cells were cultured in a complete medium containing 15% fetal bovine serum at 37 C, 5% CO2, and saturated humidity. When the cells grew logarithmically, they were spread onto plates, and the cell density was adjusted to 8.0 × 10^4 cells/mL before the cell sap was added into a 96-well plate (200 µL per well). The cells grew adherent for 24 h. After 24 h, 2 µL of two standards, two extracts of medicinal herbs were added to each plate well and incubated for 72 h. Adriamycin was used as the positive control, and the blank control contained 2 µL DMSO. After incubation, 20 μL of 5 mg/mL MTT solution was added, and the plates were incubated for 4 h. The supernatant liquid was removed, and the cells were disrupted with 200 µL of DMSO for 10 min. After the blue crystalline substance was fully dissolved, the absorbance value was measured on a microplate reader with the detection wavelength of 562 nm and the reference wavelength of 630 nm. The IC50 value of each compound was calculated.

[2] = test system: DNA of HepG2 cells; experiment: Comet assay, DNA damage; type: cell-based, Human; details: for damage to the DNA of HepG2 cells / tail length compared with blank control group: AAI 50 μM, AAII 131.5 μM; for tail length compared with blank control group: AMH 10 mg/mL, ADS 93 mg/mL, ADM 3.4 μM, Kruskal–Wallis test
Protocol: Cells in the logarithmic growth phase were inoculated in 6-well plates, and the cell density was adjusted to 2.5 × 10^5 cells /mL, 2 mL per well. After 24 h, the experimental group was combined with AAⅠ (50 μM), AAII (131.5 μM), extracts of the AMH (10 mg/mL) and ADS (93 mg/mL), the positive control group was combined with ADM (3.4 μM), and the blank control group were added with the same volume of cell culture solution. After 48 h of culture, the cells were collected. DNA damage was detected according to the operating instructions of comet assay kit. The experiment was repeated 3 times, and 50 cells were selected at each dose in each experiment and analyzed by Comet Assay software (CASP, http://casplab.com/, accessed on 5 October 2022). The mean values of tail DNA percentage, tail length, and tail moment of three experiments were used to express DNA damage. Results one-way ANOVA was used to test the data between groups, and the difference was statistically significant when p < 0.01. Data and statistical results are generated by GraphPad Prism 7 software.

[3] = test system: DNA of HepG2 cells; experiment: Comet assay, DNA damage; type: cell-based, Human; details: HepG2, 48 h; AAI 50 μM, AAII 131.5 μM, AMH 10 mg/mL, ADS 93 mg/mL, ADM 3.4 μM; Kruskal–Wallis test
[4] = test system: HepG2 cell line; experiment: Cytotoxicity assay, MTT method; type: cell-based, Human
Protocol: as §1

[5] = test system: NCI-H187 cell line; set-up: method as in PMID 25865074, PMID 29098873; details: cited from earlier work
[6] = test system: A549; set-up: method as in PMID 25865074, PMID 29098873; details: cited from earlier work
[7] = test system: MCF7; set-up: method as in PMID 25865074, PMID 29098873; details: cited from earlier work
[8] = means ± SD, read-out: IC50 values of compounds, cytotoxic activity
[9] = HepG2, AAI 50 μM vs AAII 131.5 μM, 48 h
[10] = HepG2, AAI 50 μM vs ADS extract 93 mg/mL, 48 h

O=C(O)c1cc2c(c3c1c([N+](=O)[O-])cc1ccccc13)OCO2 [AAII]
IC50 [1, 8]: 131.4 ± 0.1 µM | damage to cellular DNA, TDNA ([2]; HepG2, 48 h): 5–20% | damage to the DNA of HepG2 cells ([2]; HepG2, 48 h): no obvious damage | tail DNA content compared with blank control group [3]: no significance

O=C(O)c1cc2c(c3c1c([N+](=O)[O-])cc1ccc(O)cc13)OCO2 [AAC, aristolochic acid ΙΙΙ a]
IC50 [1, 8]: 293.5 ± 0.3 µM

COc1cc(O)cc2c1cc([N+](=O)[O-])c1c(C(=O)O)cc3c(c12)OCO3 [AAD, Aristolochic acid IVa]
IC50 ([1]; read-out: IC50 values of compounds, cytotoxic activity (symbol)): > 1000 µM | cytotoxicity against HepG2 cell line [4]: no cytotoxicity

COc1cc2c3c(cc4ccccc4c3c1O)NC2=O [AL-FI]
IC50 [1, 8]: 417.2 ± 0.2 µM

COc1cccc2c1cc1c3c(cc4c(c32)OCO4)C(=O)N1 [AL-I, aristolactam Ι]
IC50 [1, 8]: 135.7 ± 0.3 µM

COc1cccc2c1cc([N+](=O)[O-])c1c(C(=O)O)cc3c(c12)OCO3 [AAI, Aristolochic acid I]
IC50 at 72 h [1, 8]: 50.2 ± 0.2 µM | cytotoxicity against HepG2 cell line [4]: moderate cytotoxicity | damage to the DNA of HepG2 cells ([2]; HepG2, 48 h): obviously caused damage to the DNA | tail length compared with blank control group ([2]; HepG2, 48 h): significantly higher | tail DNA content, increase relative to AAII [2, 9]: 16 times | tail length, increase relative to AAII [2, 9]: 12.8 times | tail moment, increase relative to AAII group [2, 9]: 110 times | tail DNA content, increase relative to ADS [2, 10]: 4.7 times | tail length, increase relative to ADS [2, 10]: 6.8 times | tail moment, increase relative to ADS group [2, 10]: approximately 70 times | damage to cellular DNA, TDNA ([2]; HepG2, at 50 μM, 48 h): 40–95% | tail DNA content compared with blank control group [3]: significant differences

COc1cc2c3c(cc4ccccc4c3c1OC)NC2=O [AL-BII]
IC50 [1, 8]: 0.2 ± 0.1 µM | cytotoxicity against HepG2 cell line [4]: most potent cytotoxicity | cytotoxicity against NCI-H187 cell line [5]: selective cytotoxicity | cytotoxicity against A549 [6]: no cytotoxicity | cytotoxicity against MCF7 [7]: no cytotoxicity

COc1cccc2c1C(=O)c1c(O)c3c(c(O)c1C2=O)C[C@@](O)(C(=O)CO)C[C@@H]3O[C@H]1C[C@H](N)[C@H](O)[C@H](C)O1 [Extract of ADM, Adriamycin]
IC50 [1, 8]: 3.1 ± 0.1 µM | tail length compared with blank control group ([2]; HepG2, 48 h): significantly higher | tail DNA content compared with blank control group [3]: significant differences
